What was measured:
[1] = tested on: cGMP in rat primary neurons; assay: cGMP neuronal cell-based assay (Example 3); conditions: Primary neuron; rat primary hippocampal neurons; 30 μM DETA-NO; cGMP by LC-MS/MS; 50% of high control (10 μM Compound Y); read-out: Abs EC50
Experimental: Rat primary neurons were isolated from fetuses of 18-day pregnant Sprague-Dawley females. The fetuses were collected in Hanks' balanced salt solution (HBSS) and brains were rapidly removed. The cerebral hippocampi were isolated and mechanically fragmented. Further tissue digestion was performed with 0.25% (wt/vol) trypsin solution in HBSS without Ca2+ and Mg2+ for 15 min at 37° C. After trypsination, cells were washed and resuspended in neurobasal medium supplemented with 0.5 mM L-glutamine, 12.5 uM glutamic acid, 2% B-27 and 100 U/mL penicillin, and 100 μg/mL streptomycin. Cells were plated at a density of 4×10^4 cells/well in a poly-D-lysine coated 384-well flat clear-bottom plate (Corning Cat No 354662). Cells were incubated 6-7 days at 37° C. in a humidified chamber with 5% CO2. Media was removed and cells were washed 1× with HBSS containing Ca2+ and Mg2+, and replaced with 40 uL HBSS containing 0.5 mM IBMX, and incubated for 15 minutes at 37° C. 10 uL of a 5× stock of test compounds with diethylenetriamine NONOate (DETA-NO) was added. Final concentration of DETA-NO was 30 μM. Cells were incubated for 20 min at 37° C. Medium was removed, 50 uL of ice-cold 10% acetic acid was added, and incubated for 60 minutes at 4° C. Following centrifugation at 4° C. for 5 minutes at 1000×g to pellet cell debris, the supernatant was aspirated to a clean plate and the samples were analyzed for cGMP content. cGMP concentrations were determined from each sample using LC-MS/MS.
Data were normalized to a high control using the following equation: 100*(Sample−Low Control)/(High Control−Low Control), where the low control is the average of 15 samples treated with 1% DMSO, and the high control is the average of 15 samples treated with 10 μM a known sGC stimulator Compound Y. Data were fit using a 4-parameter fit (log(agonist) vs. response—variable slope) using GraphPad Prism Software v.5. n=2 for all compounds. The Absolute EC50 was interpolated from the curve fit and is defined as the concentration at which a given compound elicits 50% of the high control response. Compounds failing to elicit a minimum response of 50% are reported as >30 μM. For compounds run in duplicate or n higher than 2, the result herein given is the geometric mean of the several results obtained.

[2] = molecular target: T1, sGC enzyme (Homo sapiens, UniProt Q02108+Q02153); assay: cGMP GloSensor cell-based assay, 384-well format (Example 2a); conditions: HEK293 GloSensor 40F cGMP cells; 10 μM DETA-NONOate; 50% of high control (30 μM Compound Y); read-out: Abs EC50
T1 construct: sGC enzyme activity values in HEK cells, determined by the GloSensor assay; host or cells: HEK293 cells stably expressing GloSensor 40F cGMP biosensor
T1 sequence (Q02153 1-619): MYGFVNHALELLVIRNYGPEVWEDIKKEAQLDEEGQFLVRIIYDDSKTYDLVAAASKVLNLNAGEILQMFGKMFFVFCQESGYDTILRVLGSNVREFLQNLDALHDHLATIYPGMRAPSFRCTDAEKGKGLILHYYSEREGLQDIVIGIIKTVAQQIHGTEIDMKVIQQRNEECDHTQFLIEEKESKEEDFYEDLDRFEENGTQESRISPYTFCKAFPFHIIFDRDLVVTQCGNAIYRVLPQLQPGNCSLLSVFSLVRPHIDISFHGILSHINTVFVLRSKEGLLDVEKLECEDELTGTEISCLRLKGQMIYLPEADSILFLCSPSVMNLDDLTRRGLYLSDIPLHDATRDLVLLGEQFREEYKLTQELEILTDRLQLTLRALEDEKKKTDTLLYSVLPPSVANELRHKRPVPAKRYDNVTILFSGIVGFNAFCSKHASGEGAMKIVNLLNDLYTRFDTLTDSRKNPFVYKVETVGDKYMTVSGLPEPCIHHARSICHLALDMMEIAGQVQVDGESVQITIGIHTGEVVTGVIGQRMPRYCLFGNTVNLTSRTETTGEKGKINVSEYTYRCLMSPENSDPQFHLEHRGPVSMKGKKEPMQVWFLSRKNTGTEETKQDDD
T1 sequence (Q02108 1-690): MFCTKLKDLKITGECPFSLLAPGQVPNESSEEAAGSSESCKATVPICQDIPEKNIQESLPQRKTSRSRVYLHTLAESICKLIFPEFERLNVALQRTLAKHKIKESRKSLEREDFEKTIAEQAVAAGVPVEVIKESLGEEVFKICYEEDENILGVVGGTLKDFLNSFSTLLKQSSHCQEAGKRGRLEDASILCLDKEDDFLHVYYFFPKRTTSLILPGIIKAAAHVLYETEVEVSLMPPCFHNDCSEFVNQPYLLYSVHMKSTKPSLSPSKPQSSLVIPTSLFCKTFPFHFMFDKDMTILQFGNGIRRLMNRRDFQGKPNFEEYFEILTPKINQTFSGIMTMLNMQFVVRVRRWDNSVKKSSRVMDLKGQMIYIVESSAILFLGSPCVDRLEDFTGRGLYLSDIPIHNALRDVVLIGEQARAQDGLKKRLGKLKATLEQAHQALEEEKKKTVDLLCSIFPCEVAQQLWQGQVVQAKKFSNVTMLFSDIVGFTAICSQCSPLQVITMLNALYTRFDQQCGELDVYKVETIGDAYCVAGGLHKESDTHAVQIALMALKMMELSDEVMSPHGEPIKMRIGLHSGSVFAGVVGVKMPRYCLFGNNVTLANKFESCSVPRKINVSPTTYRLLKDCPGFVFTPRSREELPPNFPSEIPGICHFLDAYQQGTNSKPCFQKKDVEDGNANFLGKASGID
Source text: Human embryonic kidney cells (HEK293) cells expressing GloSensor™ 40F cGMP (Part No: CS182801, Promega) were used to evaluate the activity of test compounds. The luminescent biosensors (engineered luciferase) that were incorporated into these cells detect cGMP formed by the compounds stimulating the sGC enzyme and emit luminescence.
cGMP GloSensor cells were maintained in Dulbecco's Modification of Eagle's Medium (DMEM) supplemented with fetal bovine serum (FBS, 10% final) and hygromycine (200 ug/ml). The day before assay, cells were plated in DMEM with 10% FBS in a 50 μL volume at a density of 1.5×10^4 cells/well in a poly-D-lysine coated 384-well flat white-bottom plate (Corning Cat No 35661). Cells were incubated overnight at 37° C. in a humidified chamber with 5% CO2. The next day, medium was removed and cells were replaced with 40 ul/well of GloSensor™, 2 mM (Promega Cat No E1291). Cells were treated for 90 minutes at 25° C. to allow the substrate to equilibrate in the cells. Test compounds and Diethylenetriamine NONOate (DETA-NONOate, or DETA-NO) was diluted to 3 mM (20×) in serum-free CO2 independent medium and serially diluted at 4× dilutions to create 5× dose curve from which 10 ul was added to the wells (x μM concentration for test compound solution and 10 μM concentration for DETA-NONOate solution; wherein x is one of the following final concentrations: 30000 nM, 7500 nM, 1875 nM, 468.8 nM, 117.2 nM, 29.29 nM, 7.320 nM, 1.830 nM, 0.460 nM, 0.114 nM, and 0.029 nM).
For the kinetics studies, luminescense was measured right away for 0.2 sec per well with Envision (Perkin Elmer). For endpoint SAR screening, data were collected after 55 min incubation at room temperature.
Data were normalized to a high control using the following equation: 100*(Sample−Low Control)/(High Control−Low Control), where the low control is the average of 16 samples treated with 1% DMSO, and the high control is the average of 16 samples treated with 30 μM of Compound Y depicted below. Data were fit using a 4-parameter fit (log(agonist) vs. response—variable slope) using GraphPad Prism Software v.5. n=2 for all compounds. The Absolute (Abs) EC50 was interpolated from the curve fit and is defined as the concentration at which a given compound elicits 50% of the high control response after data normalization as indicated above. Compounds failing to elicit a minimum response of 50% are reported as >30 μM or ND. For compounds run in duplicate or n higher than 2, the result herein given is the geometric mean of the several results obtained.

[3] = Rat cerebrospinal fluid (CSF) pharmacokinetic properties (Example 4); type: in vivo; conditions: male, Sprague-Dawley, 10 mg/kg PO, 1 h; for Kp uu at 1 h: unbound CSF/unbound plasma, read-out: Kp,uu (@ 1 h); for concentration at 1 h: CSF, read-out: CSF Conc. (nM @ 1 h)
Experimental: Protocol PK in rats was determined following oral dosing. For the oral (PO) experiments, a group of 6 male Sprague-Dawley rats with an indwelling catheter placed in the cistema magna were used. The PO group was dosed with 10 mg/kg or 1 mg/kg of a compound formulated as a solution in PEG400. PO doses were administered by oral gavage and delivered to the stomach using a syringe and gavage tube. Following oral dosage administration, the gavage tube was flushed with approximately 0.5 mL of water to ensure complete delivery of the full dose.
Plasma samples were collected as follows: samples of CSF and blood were collected at 1 hour, 2, and optionally at 4 hours post-dosing. CSF samples (0.05 mL) were collected through the intracisternal catheter. Blood samples (0.25 mL) were collected through retro-orbital sampling. These samples were kept on ice until processed for plasma. Blood samples were centrifuged at 3200 rpm for 5 minutes at approximately 5° C. within 1 hour of collection. Plasma was directly transferred to a 96-well plate tube (0.125 mL). Plug caps were placed on the tubes and the tubes frozen at approximately −70° C. and stored until analysis. Plasma was collected and analyzed for the presence of a compound.
Quantitation of Compounds. The compound in question and the internal standard were extracted from plasma and CSF by precipitation. Samples were analyzed using liquid chromatography (LC) with tandem mass spectrometric detection (MS/MS) using electrospray ionization. The standard curve range was from 1 to 1000 ng/mL. Results of the compounds described herein in this assay are illustrated in Table 4a below (10 mg/kg dose) and Tables 4b and 4c below (1 mg/kg).
Kp,uu is defined as the concentration ratio of unbound drug in CSF to unbound drug in plasma. Unbound drug in plasma (or free plasma concentration) is calculated by multiplying the total plasma concentration by the unbound fraction as determined by plasma protein binding. The CSF concentration is then divided by the free plasma concentration to determine the Kp,uu. (See e.g., Di et al., J. Med. Chem., 56, 2-12 (2013))

EC50 [1] | EC50 [2] | Kp uu at 1 h [3] | concentration at 1 h [3] | SMILES
≤ 0.1 µM | ≤ 0.1 µM |  |  | Fc1ccccc1Cc1nc(-c2nc(C(F)(F)C(F)(F)F)n[nH]2)cn2ccnc12 [Compound I-5, 8-(2-Fluorobenzyl)-6-(3-(perfluoroethyl)-1H-1,2,4-triazol-5-yl)imidazo[1,2-a]pyrazine]
≤ 0.1 µM | 0.1 to 1 µM |  |  | FC(F)(F)c1n[nH]c(-c2cn3ccnc3c(Cc3ccccc3)n2)n1 [Compound I-6, 8-Benzyl-6-(3-(trifluoromethyl)-1H-1,2,4-triazol-5-yl)imidazo[1,2-a]pyrazine]
0.1 to 1 µM | 0.1 to 1 µM |  |  | FC(F)c1n[nH]c(-c2cn3ccnc3c(Cc3ccccc3)n2)n1 [Compound I-7, 8-Benzyl-6-(3-(difluoromethyl)-1H-1,2,4-triazol-5-yl)imidazo[1,2-a]pyrazine]
≤ 0.1 µM | ≤ 0.1 µM |  |  | Fc1ccc(F)c(Cc2nc(-c3nc(C(F)(F)F)n[nH]3)cn3ccnc23)c1 [Compound I-8, 8-(2,5-Difluorobenzyl)-6-(3-(trifluoromethyl)-1H-1,2,4-triazol-5-yl)imidazo[1,2-a]pyrazine]
≤ 0.1 µM | ≤ 0.1 µM |  |  | Fc1ccc(F)c(Cc2nc(-c3nc(C(F)F)n[nH]3)cn3ccnc23)c1 [Compound I-9, 8-(2,5-Difluorobenzyl)-6-(3-(difluoromethyl)-1H-1,2,4-triazol-5-yl)imidazo[1,2-a]pyrazine]
0.1 to 1 µM | 0.1 to 1 µM |  |  | Fc1ccc(Cc2nc(-c3nc(C(F)(F)F)n[nH]3)cn3ccnc23)cc1 [Compound I-12, 8-(4-Fluorobenzyl)-6-(3-(trifluoromethyl)-1H-1,2,4-triazol-5-yl)imidazo[1,2-a]pyrazine]
> 1 µM | > 1 µM |  |  | FC(F)(F)c1n[nH]c(-c2cn3ccnc3c(CCC(F)(F)C(F)(F)F)n2)n1 [Compound I-13, 8-(3,3,4,4,4-Pentafluorobutyl)-6-(3-(trifluoromethyl)-1H-1,2,4-triazol-5-yl)imidazo[1,2-a]pyrazine]
0.1 to 1 µM | 0.1 to 1 µM |  |  | FC(F)(F)c1n[nH]c(-c2cn3ncnc3c(Cc3ccccc3)n2)n1 [Compound I-15, 8-Benzyl-6-(3-(trifluoromethyl)-1H-1,2,4-triazol-5-yl)-[1,2,4]triazolo[1,5-a]pyrazine]
 | ≤ 0.1 µM | 0.2 | 41 nM | Cc1ccc(Cc2nc(-c3nc(C(F)(F)F)n[nH]3)cn3ccnc23)cc1F [Compound I-27, 8-(3-Fluoro-4-methylbenzyl)-6-(3-(trifluoromethyl)-1H-1,2,4-triazol-5-yl)imidazo[1,2-a]pyrazine]
 | ≤ 0.1 µM | 0.2 | 20 nM | Cc1ccc(Cc2nc(-c3nc(C(F)F)n[nH]3)cn3ccnc23)cc1F [Compound I-28, 6-(3-(Difluoromethyl)-1H-1,2,4-triazol-5-yl)-8-(3-fluoro-4-methylbenzyl)imidazo[1,2-a]pyrazine]

From patent US11731977B2, “SGC stimulators” (Cyclerion Therapeutics, Inc., priority 2016, dated 2023)
